Test results as given in US8236822B2, “Compounds as cannabinoid receptor ligands” (Abbott Laboratories, priority 2009, dated 2012).
Like-named read-outs stand apart in the source and are kept apart here.

Tests used:
rat CB2 receptors = molecular target: T1, rat CB2 receptors (Rattus norvegicus, UniProt Q9QZN9); test: rat CB2 radioligand binding assay ([3H]CP-55,940 competition)
T1 construct: expressed in transfected cells; host or cells: HEK293
T1 sequence (Q9QZN9 1-360): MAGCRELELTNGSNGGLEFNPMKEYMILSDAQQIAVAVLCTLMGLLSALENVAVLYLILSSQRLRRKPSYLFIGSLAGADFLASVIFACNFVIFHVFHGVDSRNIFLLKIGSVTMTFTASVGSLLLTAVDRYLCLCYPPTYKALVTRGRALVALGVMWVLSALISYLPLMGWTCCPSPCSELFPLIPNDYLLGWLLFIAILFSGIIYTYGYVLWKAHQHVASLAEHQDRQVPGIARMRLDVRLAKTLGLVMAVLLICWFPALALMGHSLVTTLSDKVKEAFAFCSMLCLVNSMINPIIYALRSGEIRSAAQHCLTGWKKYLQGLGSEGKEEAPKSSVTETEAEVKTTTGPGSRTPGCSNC
Protocol: (§1) In Vitro Methods—CB2 and CB1Radioligand Binding Assays:
(§2) The CB1 and CB2 radioligand binding assays described herein are utilized to ascertain the selectivity of compounds of the present application for binding to CB2 relative to CB′ receptors.
(§3) HEK293 cells stably expressing rat CB2 receptors were grown until a confluent monolayer was formed. Briefly, the cells were harvested and homogenized in TE buffer (50 mM Tris-HCl, 1 mM MgCl2, and 1 mM EDTA) using a polytron for 2×10 second bursts in the presence of protease inhibitors, followed by centrifugation at 45,000×g for 20 minutes. The final membrane pellet was re-homogenized in storage buffer (50 mM Tris-HCl, 1 mM MgCl2, and 1 mM EDTA and 10% sucrose) and frozen at −78° C. until used. Saturation binding reactions were initiated by the addition of membrane preparation (protein concentration of 20 μg/well for rat CB2) into wells of a deep well plate containing [^3H]CP-55,940 (120 Ci/mmol, a nonselective CB agonist commercially available from Tocris) in assay buffer (50 mM Tris, 2.5 mM EDTA, 5 mM MgCl2, and 0.5 mg/mL fatty acid free BSA, pH 7.4). After 45 min incubation at 30° C., binding reaction was terminated by the addition of 300 μL/well of cold assay buffer followed by rapid vacuum filtration through a UniFilter-96 GF/C filter plates (pre-soaked in 1 mg/mL BSA for 2 hours). The bound activity was counted in a TopCount using Microscint-20. Saturation experiments were conducted with twelve concentrations of [^3H]CP-55,940 ranging from 0.01 to 8 nM. Competition experiments were conducted with 0.5 nM [^3H]CP-55,940 and five concentrations of displacing ligands selected from the range of 0.01 nM to 10 μM. The addition of 10 μM unlabeled CP-55,940 (Tocris, Ellisville, Mo.) was used to assess nonspecific binding.

human CB2 receptors = molecular target: T2, human CB2 receptors (Homo sapiens, UniProt P34972); test: human CB2 radioligand binding assay ([3H]CP-55,940 competition)
T2 construct: expressed in transfected cells; host or cells: HEK293
Protocol: as §1, §2
as §3, with “expressing human” for “expressing rat”, “of 5” for “of 20”, “for human” for “for rat”, “After 90” for “After 45”, “concentrations (0.01” for “concentrations of displacing ligands selected from the range of 0.01”, “10 μM) of displacing ligands.” for “10 μM.”

T2 sequence (P34972 whole entry): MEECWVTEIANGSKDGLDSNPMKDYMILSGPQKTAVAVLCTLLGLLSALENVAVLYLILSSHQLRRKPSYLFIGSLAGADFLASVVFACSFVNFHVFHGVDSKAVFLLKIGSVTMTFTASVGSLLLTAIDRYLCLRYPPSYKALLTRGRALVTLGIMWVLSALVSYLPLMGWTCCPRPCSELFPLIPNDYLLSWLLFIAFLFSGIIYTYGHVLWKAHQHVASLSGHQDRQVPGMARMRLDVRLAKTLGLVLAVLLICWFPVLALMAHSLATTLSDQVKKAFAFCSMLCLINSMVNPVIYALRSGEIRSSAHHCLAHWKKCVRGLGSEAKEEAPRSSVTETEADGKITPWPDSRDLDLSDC

Compound	Ki (rat CB2 receptors)	Ki (human CB2 receptors)	Ki (rat CB2 receptors; HEK293 membranes expressing rat CB2, 0.5 nM [3H]CP-55,940, read-out: rat CB2 binding (Ki))
Cn1c(C(C)(C)C)c/c(=N\C(=O)c2cc(C(F)(F)F)ccc2OC2CN(C(C)(C)C)C2)n1CC1CC1 [Example 2, 2-[(1-tert-butylazetidin-3-yl)oxy]-N-[(3E)-5-tert-butyl-2-(cyclopropylmethyl)-1-methyl-1,2-dihydro-3H-pyrazol-3-ylidene]-5-(trifluoromethyl)benzamide]	459 nM		
Cn1c(C(C)(C)C)c/c(=N\C(=O)c2cc(C(F)(F)F)ccc2OCCNC(C)(C)C)n1CC1CC1 [Example 1, 2-[2-(tert-butylamino)ethoxy]-N-[(3E)-5-tert-butyl-2-(cyclopropylmethyl)-1-methyl-1,2-dihydro-3H-pyrazol-3-ylidene]-5-(trifluoromethyl)benzamide]	44.2 nM	123 nM	
CN1CC[C@H](Oc2ccc(C(F)(F)F)cc2C(=O)/N=c2\cc(C(C)(C)C)n(C)n2CC2CCC2)C1 [Example 6, N-[(3E)-5-tert-butyl-2-(cyclobutylmethyl)-1-methyl-1,2-dihydro-3H-pyrazol-3-ylidene]-2-{[(3S)-1-methylpyrrolidin-3-yl]oxy}-5-(trifluoromethyl)benzamide]	420 nM		
CCCCn1/c(=N/C(=O)c2cc(C(F)(F)F)ccc2OCCNC(C)(C)C)cc(C(C)(C)C)n1C [Example 4, 2-[2-(tert-butylamino)ethoxy]-N-[(3E)-2-butyl-5-tert-butyl-1-methyl-1,2-dihydro-3H-pyrazol-3-ylidene]-5-(trifluoromethyl)benzamide]			104 nM
CCCCn1nc(C(C)(C)C)s/c1=N\C(=O)c1cc(C(F)(F)F)ccc1OC1CN(C(C)(C)C)C1 [Example 3, 2-[(1-tert-butylazetidin-3-yl)oxy]-N-[(2Z)-3-butyl-5-tert-butyl-1,3,4-thiadiazol-2(3H)-ylidene]-5-(trifluoromethyl)benzamide]	29.1 nM	46.4 nM	
Cn1c(C(C)(C)C)c/c(=N\C(=O)c2cc(C(F)(F)F)ccc2OCCNC(C)(C)C)n1CC1CCC1 [Example 5, 2-[2-(tert-butylamino)ethoxy]-N-[(3E)-5-tert-butyl-2-(cyclobutylmethyl)-1-methyl-1,2-dihydro-3H-pyrazol-3-ylidene]-5-(trifluoromethyl)benzamide]		199 nM	
